Data as given in ChEMBL document CHEMBL3232812, “In-vitro anti-proliferative and anti-oxidant activity of galangin, fisetin and quercetin: role of localization and intermolecular interaction in model membrane” (Eur J Med Chem, 2014).
≈ marks a conversion by molar mass, not a printed value. Calls of active or inactive are those of the source. The calls are words filed in the database; no cut-off is given here.

Columns and labels:
[1] = Binding affinity DPPC multilamellar vesicles assessed as main transition temperature at 1:10 compound/lipid ratio after 2 hrs by differential scanning calorimetry method (reference value: 41.98 degC)
[2] = Binding affinity to 0.5 mg/ml of DPPC multilamellar vesicles at 100 uM after 2 hrs by centrifugation method; assay type: physicochemical
[3] = Binding affinity DPPC multilamellar vesicles after 2 hrs by centrifugation method; assay type: physicochemical
[4] = Binding affinity DPPC multilamellar vesicles assessed as pre-transition temperature at 1:20 compound/lipid ratio after 2 hrs by differential scanning calorimetry method (reference value: 34.10 degC)
[5] = Binding affinity DPPC multilamellar vesicles assessed as pre-transition temperature at 1:10 compound/lipid ratio after 2 hrs by differential scanning calorimetry method (reference value: 34.10 degC)
[6] = Binding affinity DPPC multilamellar vesicles assessed as main transition temperature at 1:20 compound/lipid ratio after 2 hrs by differential scanning calorimetry method (reference value: 41.98 degC)
[7] = Binding affinity DPPC multilamellar vesicles assessed as main transition temperature at 1:5 compound/lipid ratio after 2 hrs by differential scanning calorimetry method (reference value: 41.98 degC)
[8] = Binding affinity DPPC multilamellar vesicles assessed as main transition temperature at 1:2 compound/lipid ratio after 2 hrs by differential scanning calorimetry method (reference value: 41.98 degC)
[9] = Binding affinity DPPC multilamellar vesicles assessed as chemical shift at 1:5 compound/lipid ratio at 323 K by nuclear magnetic resonance analysis
[10] = Binding affinity DPPC multilamellar vesicles assessed as chemical shift at 1:5 compound/lipid ratio at 303 K by nuclear magnetic resonance analysis
[11] = Binding affinity DPPC multilamellar vesicles assessed as chemical shift at 1:5 compound/lipid ratio at 333 K by nuclear magnetic resonance analysis
[12] = test system: Radical scavenging activity; test: Antioxidant activity assessed as DPPH radical scavenging activity after 30 mins; assay type: functional
K562 = test: Antiproliferative activity against human K562 cells assessed as cell growth at 10^-4 ug/ml after 48 hrs by SRB assay relative to control; assay type: functional; conditions: K562, 48 h, read-out: Activity
HepG2 = test: Antiproliferative activity against human HepG2 cells assessed as cell growth at 10^-4 ug/ml after 48 hrs by SRB assay relative to control; assay type: functional; conditions: HepG2, 48 h, read-out: Activity
MCF7 = test: Antiproliferative activity against human MCF7 cells assessed as cell growth at 10^-4 ug/ml after 48 hrs by SRB assay relative to control; assay type: functional; conditions: MCF7, 48 h, read-out: Activity

Structure (SMILES): O=c1c(O)c(-c2ccc(O)c(O)c2)oc2cc(O)ccc12 [FISETIN]
- T [1]: 39.3 °C
- Activity [2]: 60%
- Kapp [3]: 10438 M⁻¹
- T [4]: 30.1 °C
- T [5]: 26.2 °C
- T [6]: 40.8 °C
- T [7]: 38.3 °C
- T [8]: 39.2 °C
- Activity [9]: Active
- Activity [10]: Active
- Activity [11]: Active
- IC50 [12]: 9.26 µg/mL (≈ 32.4 µM)
- growth at 0.0001 µg/mL (K562): 33.7%
- growth at 0.0001 µg/mL (HepG2): 62.8%
- growth at 0.0001 µg/mL (MCF7): 47.1%

Structure (SMILES): O=c1c(O)c(-c2ccccc2)oc2cc(O)cc(O)c12 [GALANGIN]
- T [1]: 37.9 °C
- Activity [2]: 60%
- Kapp [3]: 16701 M⁻¹
- T [6]: 38.7 °C
- T [7]: 37.6 °C
- T [8]: 36.5 °C
- Activity [9]: Active
- Activity [10]: Active
- Activity [11]: Active
- IC50 [12]: 11.4 µg/mL (≈ 42.2 µM)
- growth at 0.0001 µg/mL (K562): 74.8%
- growth at 0.0001 µg/mL (HepG2): 23.7%
- growth at 0.0001 µg/mL (MCF7): 68.2%

Structure (SMILES): O=c1c(O)c(-c2ccc(O)c(O)c2)oc2cc(O)cc(O)c12 [QUERCETIN]
- T [1]: 39.7 °C
- Activity [2]: 60%
- Kapp [3]: 10710 M⁻¹
- T [6]: 40.2 °C
- T [7]: 39.6 °C
- T [8]: 41 °C
- Activity [9]: Active
- Activity [10]: Active
- Activity [11]: Active
- IC50 [12]: 9.14 µg/mL (≈ 30.2 µM)
- growth at 0.0001 µg/mL (K562): 12.4%
- growth at 0.0001 µg/mL (HepG2): -5.4%
- growth at 0.0001 µg/mL (MCF7): 8.3%
